PubChem BioAssay (NCI)
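A five-concentration, 48-hour dose response in 96-well plates underlies each endpoint, interpolated linearly between surrounding concentrations. GI50 is the concentration that inhibits growth by half. TGI denotes the concentration required for complete inhibition of growth.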

What was measured:
Experiment in all cases: inhibition of tumour cell growth, NCI panel, 48 h
786-0 renal = test system: 786-0 renal
A498 renal = test system: A498 renal
A549 NSCLC = test system: A549 NSCLC
ACHN renal = test system: ACHN renal
BT-549 breast = test system: BT-549 breast
CAKI-1 renal = test system: CAKI-1 renal
CCRF-CEM leukemia = test system: CCRF-CEM leukemia
COLO 205 colon = test system: COLO 205 colon
DU-145 prostate = test system: DU-145 prostate
EKVX NSCLC = test system: EKVX NSCLC
HCC-2998 colon = test system: HCC-2998 colon
HCT-116 colon = test system: HCT-116 colon
HCT-15 colon = test system: HCT-15 colon
HL-60(TB) leukemia = test system: HL-60(TB) leukemia
HOP-62 NSCLC = test system: HOP-62 NSCLC
HOP-92 NSCLC = test system: HOP-92 NSCLC
HS 578T breast = test system: HS 578T breast
HT29 colon = test system: HT29 colon
K-562 leukemia = test system: K-562 leukemia
KM12 colon = test system: KM12 colon
LOX IMVI melanoma = test system: LOX IMVI melanoma
M14 melanoma = test system: M14 melanoma
MALME-3M melanoma = test system: MALME-3M melanoma
MCF7 breast = test system: MCF7 breast
MDA-MB-231 breast = test system: MDA-MB-231 breast
MDA-MB-435 = test system: MDA-MB-435
MOLT-4 leukemia = test system: MOLT-4 leukemia
NCI-H226 lung = test system: NCI-H226 lung
NCI-H23 lung = test system: NCI-H23 lung
NCI-H460 lung = test system: NCI-H460 lung
NCI-H522 lung = test system: NCI-H522 lung
NCI/ADR-RES ovarian = test system: NCI/ADR-RES ovarian
OVCAR-3 ovarian = test system: OVCAR-3 ovarian
OVCAR-4 ovarian = test system: OVCAR-4 ovarian
OVCAR-5 ovarian = test system: OVCAR-5 ovarian
OVCAR-8 ovarian = test system: OVCAR-8 ovarian
PC-3 prostate = test system: PC-3 prostate
RPMI-8226 leukemia = test system: RPMI-8226 leukemia
RXF 393 renal = test system: RXF 393 renal
SF-268 CNS = test system: SF-268 CNS
SF-295 CNS = test system: SF-295 CNS
SF-539 CNS = test system: SF-539 CNS
SK-MEL-2 melanoma = test system: SK-MEL-2 melanoma
SK-MEL-28 melanoma = test system: SK-MEL-28 melanoma
SK-MEL-5 melanoma = test system: SK-MEL-5 melanoma
SK-OV-3 ovarian = test system: SK-OV-3 ovarian
SN12C renal = test system: SN12C renal
SNB-19 CNS = test system: SNB-19 CNS
SNB-75 CNS = test system: SNB-75 CNS
SR leukemia = test system: SR leukemia
SW-620 colon = test system: SW-620 colon
T-47D breast = test system: T-47D breast
TK-10 renal = test system: TK-10 renal
U251 CNS = test system: U251 CNS
UACC-257 melanoma = test system: UACC-257 melanoma
UACC-62 melanoma = test system: UACC-62 melanoma
UO-31 renal = test system: UO-31 renal

## CN(C)CCN1C(=O)c2cccc3cccc(c23)C1=O
786-0 renal
  GI50: 24 µM
  TGI: > 25 µM
A498 renal
  GI50: 13.4 µM
  TGI: > 25 µM
A549 NSCLC
  GI50: 12.9 µM
  TGI: > 25 µM
ACHN renal
  GI50: 8.29 µM
  TGI: > 25 µM
BT-549 breast
  GI50: > 25 µM
  TGI: > 25 µM
CAKI-1 renal
  GI50: 5.13 µM
  TGI: 17.5 µM
CCRF-CEM leukemia
  GI50: 14.5 µM
  TGI: > 25 µM
COLO 205 colon
  GI50: 7.04 µM
  TGI: > 25 µM
DU-145 prostate
  GI50: 12.4 µM
  TGI: > 25 µM
EKVX NSCLC
  GI50: > 25 µM
  TGI: > 25 µM
HCC-2998 colon
  GI50: > 25 µM
  TGI: > 25 µM
HCT-116 colon
  GI50: 9.57 µM
  TGI: > 25 µM
HCT-15 colon
  GI50: 11.4 µM
  TGI: > 25 µM
HL-60(TB) leukemia
  GI50: 6.82 µM
  TGI: > 25 µM
HOP-62 NSCLC
  GI50: > 25 µM
  TGI: > 25 µM
HOP-92 NSCLC
  GI50: 14.8 µM
  TGI: > 25 µM
HS 578T breast
  GI50: > 25 µM
  TGI: > 25 µM
HT29 colon
  GI50: 11.7 µM
  TGI: > 25 µM
K-562 leukemia
  GI50: 9.68 µM
  TGI: > 25 µM
KM12 colon
  GI50: 12.9 µM
  TGI: > 25 µM
LOX IMVI melanoma
  GI50: 10.6 µM
  TGI: > 25 µM
M14 melanoma
  GI50: > 25 µM
  TGI: > 25 µM
MALME-3M melanoma
  GI50: 17.6 µM
  TGI: > 25 µM
MCF7 breast
  GI50: 9.31 µM
  TGI: > 25 µM
MDA-MB-231 breast
  GI50: > 25 µM
  TGI: > 25 µM
MDA-MB-435
  GI50: > 25 µM
  TGI: > 25 µM
MOLT-4 leukemia
  GI50: 6.3 µM
  TGI: 16.3 µM
NCI-H226 lung
  GI50: 12.2 µM
  TGI: > 25 µM
NCI-H23 lung
  GI50: > 25 µM
  TGI: > 25 µM
NCI-H460 lung
  GI50: 8.26 µM
  TGI: > 25 µM
NCI-H522 lung
  GI50: 15.1 µM
  TGI: > 25 µM
NCI/ADR-RES ovarian
  GI50: 19.6 µM
  TGI: > 25 µM
OVCAR-3 ovarian
  GI50: 21.5 µM
  TGI: > 25 µM
OVCAR-4 ovarian
  GI50: > 25 µM
  TGI: > 25 µM
OVCAR-5 ovarian
  GI50: 18.1 µM
  TGI: > 25 µM
OVCAR-8 ovarian
  GI50: 13.2 µM
  TGI: > 25 µM
PC-3 prostate
  GI50: 18.7 µM
  TGI: > 25 µM
RPMI-8226 leukemia
  GI50: 16.6 µM
  TGI: > 25 µM
RXF 393 renal
  GI50: 13.4 µM
  TGI: > 25 µM
SF-268 CNS
  GI50: 18.9 µM
  TGI: > 25 µM
SF-295 CNS
  GI50: 11.1 µM
  TGI: > 25 µM
SF-539 CNS
  GI50: 15.6 µM
  TGI: > 25 µM
SK-MEL-2 melanoma
  GI50: > 25 µM
  TGI: > 25 µM
SK-MEL-28 melanoma
  GI50: > 25 µM
  TGI: > 25 µM
SK-MEL-5 melanoma
  GI50: 18.4 µM
  TGI: > 25 µM
SK-OV-3 ovarian
  GI50: 24.5 µM
  TGI: > 25 µM
SN12C renal
  GI50: 12.7 µM
  TGI: > 25 µM
SNB-19 CNS
  GI50: 22.3 µM
  TGI: > 25 µM
SNB-75 CNS
  GI50: > 25 µM
  TGI: > 25 µM
SR leukemia
  GI50: 5.18 µM
  TGI: 18.3 µM
SW-620 colon
  GI50: 11.7 µM
  TGI: > 25 µM
T-47D breast
  GI50: > 25 µM
  TGI: > 25 µM
TK-10 renal
  GI50: 12.3 µM
  TGI: > 25 µM
U251 CNS
  GI50: 19.8 µM
  TGI: > 25 µM
UACC-257 melanoma
  GI50: > 25 µM
  TGI: > 25 µM
UACC-62 melanoma
  GI50: 18.1 µM
  TGI: > 25 µM
UO-31 renal
  GI50: 11 µM
  TGI: > 25 µM
